Measured values: patent US20260272865A1, “HYDROXYPHENYL PROPANOATE COMPOUNDS FOR TUMOUR IMMUNOTHERAPY, COMPOSITIONS AND USES THEREOF” (UTI LIMITED PARTNERSHIP, priority 2023, published 2026)

Experiments:
NF-κB pathway = assay: NF-κB activity reporter assay in THP1-Dual cells; format: cell-based, human; conditions: for NF-κB pathway activation when treated with LPS: 16 hours, vs vehicle; for NF-κB pathway activation combined with PRR agonists: LPS or other NF-κB pathway inducers
Description: NF-κB and IRF induction assays were performed using mouse RAW-Dual™ (InvivoGen) and human THP1-Dua™ (InvivoGen) reporter cell lines. The cells were resuspended in freshly prepared test media at a concentration of 1.0×10^6 cells/mL for RAW-Dual™ and 5.0×10^5 cells/mL for THP1-Dual™. 180 μL of cells were seeded per well in a standard 96-well plate and optimized the concentration of several PRR agonists that trigger NF-κB and IRF. To test the metabolite effect on these pathways, 10 μL of the optimized receptor agonist, 10 μL of the 2 mM metabolite solution or vehicle was added to each well, making a final volume of 200 μL. To neutralize IL-1 receptor signalling, anti-IL-1a (clone 7D4, InvivoGen) and anti-IL-1β (clone 4H5, InvivoGen) antibodies were added and IgG1 isotype (clone T8E5, InvivoGen) was used as a control, as per manufacturer's recommendation. NF-κB activity was determined by measuring secreted embryonic alkaline phosphatase (SEAP) levels using QUANTI-Blue™ solution (InvivoGen). After aliquoting 20 μL of cell culture supernatant into 180 μL of QUANTI-Blue™, the conversion of color to blue was monitored and SEAP levels were determined using a SpectraMax i3 from Molecular Devices at 650 nm. To assess IRF induction, secreted lucia luciferase levels were measured in the culture medium using QUANTI-Luc™ solution (InvivoGen). 20 μL of cell culture supernatant was aliquoted into 50 μL of QUANTI-Luc™ solution and the luminescence reading was immediately recorded using the SpectraMax i3.

IRF pathway = format: cell-based, human
GSDMD = target: T1, GSDMD (Homo sapiens, UniProt P57764); assay: Western blot of GSDMD cleavage in THP-1 cells; format: cell-based
T1 construct: host or cells: THP1-Dual cells (human monocytic reporter line)
T1 sequence (P57764 1-484): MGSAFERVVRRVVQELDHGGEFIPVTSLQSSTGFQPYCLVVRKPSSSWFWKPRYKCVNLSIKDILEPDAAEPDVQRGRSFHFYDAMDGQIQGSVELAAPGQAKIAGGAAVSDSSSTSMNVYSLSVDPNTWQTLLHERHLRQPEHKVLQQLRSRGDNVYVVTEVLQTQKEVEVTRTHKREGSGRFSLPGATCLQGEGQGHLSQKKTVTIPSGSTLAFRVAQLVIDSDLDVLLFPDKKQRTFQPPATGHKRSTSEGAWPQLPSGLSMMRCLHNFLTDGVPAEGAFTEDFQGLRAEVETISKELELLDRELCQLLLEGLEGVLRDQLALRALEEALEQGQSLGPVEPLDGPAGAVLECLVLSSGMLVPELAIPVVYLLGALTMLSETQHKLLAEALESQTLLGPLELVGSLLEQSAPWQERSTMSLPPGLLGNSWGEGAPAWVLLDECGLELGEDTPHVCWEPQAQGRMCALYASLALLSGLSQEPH
Description: Cells were collected and lysates prepared using total lysis buffer (50 mM Tris-HCl, pH 8.0; 150 mM NaCl; 1% Triton X-100; 1% SDS). The supernatant was obtained by centrifuging at 10,000 RPM for 10 minutes at 4° C. using a benchtop PCR centrifuge. Protein quantification was performed using the Bio-Rad DC Protein Assay Kit (Bio-Rad, NC, USA). Proteins were separated using 12% SDS-PAGE gels and transferred to a PVDF membrane using the Bio-Rad Trans-turbo semi-dry transfer apparatus at 25 V/1 A for 1 hour. The membrane was blocked with Tris-buffered-saline-Tween-20™ (TBST) containing 5% skim milk for 30 minutes at room temperature. The membrane was then probed overnight at 4° C. with rabbit monoclonal recombinant anti-GSDMD antibody (ab210070, Abcam), anti-cleaved N-terminal GSDMD antibody (ab215203, Abcam) and mouse anti-actin monoclonal antibody (MAB1501, MilliporeSigma) for human FL-GSDMD, CL-GSDMD and actin. The next day, the membranes were washed with TBST three times and probed with goat anti-rabbit (1706515, Bio-Rad) or goat anti-mouse (1706516, Bio-Rad) horseradish peroxidase-conjugated IgG for 1 hour at room temperature. The secondary antibodies were diluted in TBST containing 5% (w/v) skim milk at 1:5000 and the membranes washed with TBST before detecting the proteins of interest using the Clarity™ Western ECL Substrate (Bio-Rad) on a Chemidoc-IT Imager (UVP, Upland, CA, USA).

influenza virus = conditions: early study, Science 357, 498-502 (2017); cited from earlier work

Structure (SMILES)	NF-κB pathway activation when treated with LPS (NF-κB pathway)	other results
O=C(O)CCc1ccc(Cl)cc1 [II-2, 3-(4-chlorophenyl)propionic acid]	significantly enhanced the activation	–
COC(=O)CCc1ccc(O)cc1 [Compound I-5, methyl 3-(4-hydroxyphenyl) propionate]	significantly enhanced the activation	–
O=C(O)CCCCc1ccc(O)cc1 [III-2, 5-(4-hydroxyphenyl)pentatonic acid]	significantly enhanced the activation	–
O=C(O)CCc1cccc(O)c1 [Compound I-2, 3-(3-hydroxyphenyl)propanoic acid]	potentiates	NF-κB pathway activation combined with PRR agonists (NF-κB pathway): potentiate; IRF pathway activation combined with PRR agonists (IRF pathway): potentiate; GSDMD cleavage in the presence of LPS or LPS+NG stimulation (GSDMD): facilitating gasdermin D cleavage
O=C(O)CCc1ccc(F)cc1 [II-1, 3-(4-fluorophenyl)propionic acid]	significantly enhanced the activation	–
O=C(O)CCc1ccc(O)cc1 [Compound I-3, 3-(4-hydroxyphenyl)propanoic acid]	potentiates	NF-κB pathway activation combined with PRR agonists (NF-κB pathway): potentiate; IRF pathway activation combined with PRR agonists (IRF pathway): potentiate; GSDMD cleavage in the presence of LPS or LPS+NG stimulation (GSDMD): facilitating gasdermin D cleavage; influenza virus pathology (influenza virus): protects from influenza virus pathology; type 1 interferon signalling (influenza virus): primes the amplification loop of type 1 interferon signalling
O=C(CCc1ccc(O)cc1)ON1C(=O)CCC1=O [Compound I-7, 3-(4-hydroxyphenyl)propionic acid N-hydroxysuccinimide ester]	significantly enhanced the activation	–
Cc1ccc(CCC(=O)O)cc1 [II-4, 3-(4-methylphenyl)propionic acid]	significantly enhanced the activation	–
O=C(O)CCCc1ccc(O)cc1 [III-1, 4-(4-hydroxyphenyl)butanoic acid]	significantly enhanced the activation	–
Nc1ccc(CCC(=O)O)cc1 [II-3, 3-(4-aminophenyl)propionic acid]	significantly enhanced the activation	–
CCOC(=O)CCc1ccc(O)cc1 [Compound I-6, ethyl 3-(4-hydroxyphenyl)propionate]	significantly enhanced the activation	–
O=C(O)CCC(=O)c1ccc(O)cc1 [IV]	significantly enhanced the activation	–
O=C([O-])CCc1ccc(O)cc1.[Na+] [Compound I-4, sodium 3-(4-hydroxyphenyl)propionic acid]	significantly enhanced the activation	–
NC(=O)CC[C@H](N)C(=O)O [L-gln, L-glutamine, reference compound]	had no effect	IRF pathway activation combined with PRR agonists (IRF pathway): had no effect
